Data as given in patent publication US20230218624A1 (Urovant Sciences GmbH, priority 2017, published 2023).
Values joined by “and” are separate entries in the source; they are usually repeats but may differ in a detail not shown here. Identical values can stand only once. Like-named read-outs stand apart in the source and are kept apart here. Marks after values point to notes of the source that are not given here.

Experiments:
[1] = Multiple rising dose Phase 1 pharmacokinetics; type: in vivo, human
Source text: (§1) The steady state AUC geometric mean accumulation ratios were ˜2 in young male subjects and ˜2.8 in elderly subjects (male and female).
Although exposures were similar in middle-aged males when compared to young males, plasma concentrations were higher in elderly compared to middle-aged and young subjects. […] Furthermore, the steady state AUC geometric mean accumulation ratios were ˜2 in young males and ˜2.8 in the elderly.

Plasma protein binding = type: in vitro ADME; settings: human, plasma
human plasma proteins = assay: Plasma protein binding; type: in vitro ADME
patients with OAB = assay: Phase 3 open-label 52-week study in OAB; type: in vivo, human; settings: 50 mg or 100 mg once daily, 52-week treatment period
Experimental: After eight weeks, the dose could be increased to 100 mg once daily as clinically indicated.

[2] = Dose-Cmax and dose-AUC models and simulations from Phase 1 data; design: species or system human
Experimental: Exposure, and therefore risk of adverse-events can be further reduced with a 50 mg dose.

[3] = PK in patients with renal impairment; settings: for AUC0-inf, geometric least squares mean / Apparent terminal t1/2, geometric mean (% geometric CV) / CL/F, geometric least squares mean / CLR, geometric mean (% geometric CV) / Cmax, geometric least squares mean / Fe[urine]48 hr, geometric mean (% geometric CV) / Tmax (median): single dose 100 mg
Source text: The relationship between clearance and renal function was modeled using linear regression.

[4] = Single rising oral dose Phase 1 pharmacokinetics; type: in vivo, human
Experimental: as §1
All subjects were healthy adults. […] Systemic exposures were greater than dose proportional up to 600 mg.

[5] = Drug interaction study of vibegron 75 mg and rifampin; type: in vivo, human
[6] = elderly female subjects, 100 mg
[7] = multiple dose 25 mg, after 14 days, healthy young males
[8] = multiple dose 50 mg, after 14 days, Japanese healthy young males
[9] = multiple dose 50 mg, after 14 days, healthy young males
[10] = multiple dose 100 mg, after 14 days, Japanese healthy young males
[11] = multiple dose 100 mg, after 14 days, elderly Japanese
[12] = multiple dose 100 mg, after 14 days, elderly male and female
[13] = multiple dose 100 mg, after 14 days, healthy young males
[14] = multiple dose 150 mg, after 14 days, healthy young males
[15] = multiple dose 150 mg, after 14 days, middle-aged female
[16] = multiple dose 150 mg, after 14 days, middle-aged male
[17] = multiple dose 200 mg, after 14 days, Japanese healthy young males
[18] = multiple dose 200 mg, after 14 days, healthy young males
[19] = multiple dose 300 mg, after 14 days, healthy young males
[20] = multiple dose 400 mg, after 14 days, healthy young males
[21] = healthy matched control subjects
[22] = Vibegron + Rifampin 600 mg QD, single dose 75 mg, healthy adults
[23] = Vibegron alone, single dose 75 mg, healthy adults

Compound: O=C(Nc1ccc(C[C@@H]2CC[C@H]([C@H](O)c3ccccc3)N2)cc1)[C@@H]1CCc2nccc(=O)n21 [Vibegron, (6S)—N-[4-[[(2S,5R)-5-[(R)-hydroxy(phenyl)methyl]pyrrolidin-2-yl]methyl]phenyl]-4-oxo-7,8-dihydro-6H-pyrrolo[1,2-a]pyrimidine-6-carboxamide]
- steady state Cmax, elderly compared to young males ([1]; 100 mg QD): ~1.3 fold
- fe0-24 hr,ss ([1]; 100 mg, elderly subjects): ~17%
- fe0-24 hr,ss ([1]; 100 and 150 mg, young males): ~14%
- steady state AUC higher in middle-aged females vs middle-aged males ([1]; 100 or 150 mg): ~1.5 fold
- steady state exposure (AUC0-24) higher in elderly Japanese vs elderly non-Japanese ([1]; Day 14): 35%
- steady state AUC0-24 hr [1, 6]: 2620 ng·h/mL
- steady state Cmax [1, 6]: 278 ng/mL
- renal clearance (CLR) at steady state ([1]; elderly subjects (male and female)): 127 mL/min
- AUC0-24 ([1]; human, plasma, oral, multiple dose 150 mg, after 14 days, middle-aged female, read-out: AUC0-24): 3180 ± 925 ng·h/mL
- steady state exposures higher in Japanese vs non-Japanese young males ([1]; multiple dose): ~30%
- AUC0-24 [1, 7]: 164 ± 25.9 ng·h/mL
- Cmax [1, 7]: 15.6 ± 6.93 ng/mL
- t1/2 (harmonic mean ± pseudo SD) [1, 7]: 94.0 ± 9.60 h
- AUC0-24 [1, 8]: 613 ± 296 ng·h/mL
- Cmax [1, 8]: 56.9 ± 34.2 ng/mL
- t1/2 (harmonic mean ± pseudo SD) [1, 8]: 69.4 ± 6.6 h
- AUC0-24 [1, 9]: 507 ± 176 ng·h/mL
- Cmax [1, 9]: 41.5 ± 12.3 ng/mL
- Ctrough [1, 9]: 15.2 ± 5.07 ng/mL
- t1/2 (harmonic mean ± pseudo SD) [1, 9]: 77.2 ± 8.9 h
- AUC0-24 [1, 10]: 1710 ± 542 ng·h/mL
- t1/2 (harmonic mean ± pseudo SD) [1, 10]: 56.8 ± 19.2 h
- AUC0-24 [1, 11]: 2920 ± 693 ng·h/mL
- t1/2 (harmonic mean ± pseudo SD) [1, 11]: 75.1 ± 3.9 h
- AUC0-24 [1, 12]: 2230 ± 671 ng·h/mL
- Cmax [1, 12]: 224 ± 92.0 ng/mL
- Ctrough [1, 12]: 54.2 ± 15.3 ng/mL
- t1/2 (harmonic mean ± pseudo SD) [1, 12]: 88.4 ± 10.7 h
- AUC0-24 [1, 13]: 1280 ± 529 ng·h/mL
- Cmax [1, 13]: 169 ± 80.9 ng/mL
- Ctrough [1, 13]: 31.9 ± 11.5 ng/mL
- t1/2 (harmonic mean ± pseudo SD) [1, 13]: 79.7 ± 11.5 h
- AUC0-24 [1, 14]: 2285 ± 1140 ng·h/mL
- Cmax [1, 14]: 305 ± 215 ng/mL
- t1/2 (harmonic mean ± pseudo SD) [1, 14]: 79.2 ± 9.2 h
- Cmax [1, 15]: 246 ± 139 ng/mL
- t1/2 (harmonic mean ± pseudo SD) [1, 15]: 83.1 ± 17.2 h
- AUC0-24 [1, 16]: 2170 ± 452 ng·h/mL
- Cmax [1, 16]: 293 ± 67.1 ng/mL
- t1/2 (harmonic mean ± pseudo SD) ([1]; multiple dose 150 mg, middle-aged male, determined after 28 days of dosing): 72.7 ± 16.1^d hr
- AUC0-24 [1, 17]: 4370 ± 618 ng·h/mL
- Cmax [1, 17]: 631 ± 154 ng/mL
- t1/2 (harmonic mean ± pseudo SD) [1, 17]: 59.5 ± 1.9 h
- AUC0-24 [1, 18]: 3200 ± 1120 ng·h/mL
- Cmax [1, 18]: 313 ± 168 ng/mL
- t1/2 (harmonic mean ± pseudo SD) [1, 18]: 64.7 ± 6.5 h
- AUC0-24 [1, 19]: 6980 ± 1040 ng·h/mL
- t1/2 (harmonic mean ± pseudo SD) [1, 19]: 61.7 ± 7.3 h
- AUC0-24 [1, 20]: 10500 ± 2140 ng·h/mL
- Cmax [1, 20]: 1400 ± 257 ng/mL
- t1/2 (harmonic mean ± pseudo SD) [1, 20]: 58.9 ± 5.9 h
- time to steady state concentrations ([1]; once daily dosing): ≤ 7 days
- higher exposures (AUC) in females compared with males ([1]; regardless of age): 50%
- Cmax increased in elderly Japanese vs elderly non-Japanese ([1]; steady state): 82%
- fraction unbound (Plasma protein binding): 0.49
- bound to human plasma proteins (human plasma proteins): approximately 49%
- long-term efficacy (patients with OAB): reduced episodes of micturitions, UUI episodes, total incontinence episodes, and urgency episodes
- higher Cmax in elderly and females than healthy young males [2]: 50-70%
- reduction in Cmax ([2]; dose decreased from 100 mg to 75 mg): ~40%
- AUC of 75 mg lower than 200 mg single dose ([2]; estimation): ~2 fold
- AUC of 75 mg lower than 400 mg single dose ([2]; estimation): ~6 fold
- Cmax of 75 mg lower than 200 mg single dose ([2]; estimation): approximately 3.3 fold
- Cmax of 75 mg lower than 400 mg single dose ([2]; estimation): ~9.2 fold
- increase in Cmax ([2]; increase in dose from 50 to 100 mg): ~3 fold
- higher exposure ([2]; subjects receiving a potent CYP3A/P-gp inhibitor): ~2 fold
- mean increase in AUC vs normal renal function ([2]; subjects with moderate renal impairment): 1.6 fold
- AUC0-inf higher than healthy matched controls ([3]; mild renal impairment): 49%
- CLR reduced compared to healthy matched controls ([3]; mild renal impairment): 39%
- Cmax higher than healthy matched controls ([3]; mild renal impairment): 96%
- AUC0-inf higher than healthy matched controls ([3]; moderate renal impairment): 106%
- CLR reduced compared to healthy matched controls ([3]; moderate renal impairment): 65%
- Cmax higher than healthy matched controls ([3]; moderate renal impairment): 68%
- AUC0-inf higher than healthy matched controls ([3]; severe renal impairment): 83%
- CLR reduced compared to healthy matched controls ([3]; severe renal impairment): 82%
- Cmax higher than healthy matched controls ([3]; severe renal impairment): 42%
- AUC0-inf, geometric least squares mean [3, 21]: 1540 ng·h/mL
- Apparent terminal t1/2, geometric mean (% geometric CV) [3, 21]: 98.8 (13.9) hr
- CL/F, geometric least squares mean [3, 21]: 64.9 L/h
- CLR, geometric mean (% geometric CV) [3, 21]: 10.4 (20.2) L/hr
- Cmax, geometric least squares mean [3, 21]: 107 ng/mL
- Fe[urine]48 hr, geometric mean (% geometric CV) [3, 21]: 7.9% and 7.9 (43.0) %
- Apparent terminal t1/2, geometric mean (% geometric CV) ([3]; mild renal impairment): 96.2 (11.5) hr
- CL/F, geometric least squares mean ([3]; mild renal impairment): 43.6 L/h
- CLR, geometric mean (% geometric CV) ([3]; mild renal impairment): 6.3 (31.1)^c L/hr
- Cmax, geometric least squares mean ([3]; mild renal impairment): 210 ng/mL
- Fe[urine]48 hr, geometric mean (% geometric CV) ([3]; mild renal impairment): 8.5% and 8.5 (43.9)^c %
- AUC0-inf, geometric least squares mean ([3]; moderate renal impairment): 3170 ng·h/mL
- Apparent terminal t1/2, geometric mean (% geometric CV) ([3]; moderate renal impairment): 108 (21.0) hr
- CL/F, geometric least squares mean ([3]; moderate renal impairment): 31.5 L/h
- CLR, geometric mean (% geometric CV) ([3]; moderate renal impairment): 3.6 (34.5) L/hr
- Fe[urine]48 hr, geometric mean (% geometric CV) ([3]; moderate renal impairment): 5.5% and 5.5 (53.2) %
- Tmax (median) ([3]; moderate renal impairment): 1.3 h
- AUC0-inf, geometric least squares mean ([3]; severe renal impairment): 2820 ng·h/mL
- Apparent terminal t1/2, geometric mean (% geometric CV) ([3]; severe renal impairment): 131 (10.0) hr
- CL/F, geometric least squares mean ([3]; severe renal impairment): 35.5 L/h
- CLR, geometric mean (% geometric CV) ([3]; severe renal impairment): 1.9 (30.9) L/hr
- Cmax, geometric least squares mean ([3]; severe renal impairment): 152 ng/mL
- Fe[urine]48 hr, geometric mean (% geometric CV) ([3]; severe renal impairment): 2.1% and 2.1 (57.6) %
- Tmax (median) ([3]; severe renal impairment): 0.5 h
- CL/F increase per one mL/min/1.73 m^2 increase in eGFR ([3]; slope of linear regression): ~0.8%
- exposure increase, young Japanese vs non-Japanese young males ([4]; single dose): < 2 fold
- t1/2 (harmonic mean ± pseudo SD) ([4]; single dose 50 mg, Japanese healthy young males): 64.4 ± 8.7 h
- t1/2 (harmonic mean ± pseudo SD) ([4]; single dose 50 mg, elderly male and female): 92.1 ± 15.9 h
- t1/2 (harmonic mean ± pseudo SD) ([4]; single dose 200 mg, healthy young males): 75.3 ± 9.1 h
- t1/2 (harmonic mean ± pseudo SD) ([4]; single dose 450 mg, healthy young males): 60.0 ± 9.4 h
- CL/F, geometric mean (% CV) [5, 22]: 57.3 (30.1) L/hr
- V/F, geometric mean (% CV) [5, 22]: 6140 (47.0) L
- t1/2, geometric mean (% CV) [5, 22]: 74.2 (25.2) h
- CL/F, geometric mean (% CV) [5, 23]: 57.2 (39.7) L/hr
- V/F, geometric mean (% CV) [5, 23]: 6930 (48.6) L
- tolerability ([5]; vibegron 75 mg and rifampin, healthy male and female subjects): well tolerated
- subjects with an AE related to study drug ([5]; vibegron 75 mg single doses and rifampin 600 mg QD, 3 of 20 subjects): 15%
